Results published in PubChem BioAssay AID977614 (Broad Institute, 2014).
Calls of active or inactive are those of the source.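 The calls were made as follows: active = parasite count per well reduced by over 3 SD from the mean, with host cell number above 80% of untreated; inactive = the rest.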

Test system: L. donovani amastigotes in THP-1 macrophages, DAPI imaging, 72 h
Assay: L. donovani intracellular amastigote growth inhibitors, imaging, THP-1 host macrophages, single concentration (AID 977614);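 also: signal is the parasite per host cell ratio from DAPI stained kinetoplasts and nuclei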

SMILES | AC50
COc1ccc(CN(C)C[C@H]2OCc3cnnn3CCCC(=O)N([C@@H](C)CO)C[C@@H]2C)cc1 | > 10 µM (inactive)
Cc1noc(C)c1NC(=O)N(C)C[C@H]1OCc2cn(nn2)CCCC(=O)N([C@H](C)CO)C[C@@H]1C | > 10 µM (inactive)
CCNC[C@@H]1[C@@H](c2ccccc2)[C@@H](CO)N1C(=O)Cc1ccccn1 | > 10 µM (inactive)
C[C@@H]1CN([C@@H](C)CO)C(=O)CCCn2cc(nn2)CO[C@H]1CN(C)C(=O)CCC(F)(F)F | > 10 µM (inactive)
COCCN(C[C@@H]1[C@@H](c2ccccc2)[C@H](CO)N1C(=O)C1CC1)C(C)=O | > 10 µM (inactive)
COc1ccc(NC(=O)N(C)C[C@H]2OCc3cnnn3CCCC(=O)N([C@H](C)CO)C[C@H]2C)c(OC)c1 | > 10 µM (inactive)
Cc1cccc(S(=O)(=O)N2C[C@@H]3[C@H](c4ccccc42)[C@H](CO)N3CC2CCCC2)c1 | > 10 µM (inactive)
C[C@H]1CN([C@@H](C)CO)C(=O)CCCn2nncc2CO[C@H]1CN(C)Cc1cccc(C(F)(F)F)c1 | > 10 µM (inactive)
O=C(NC[C@@H]1[C@H](c2ccccc2)[C@@H](CO)N1C(=O)C1CCC1)NC1CCCC1 | > 10 µM (inactive)
COc1ccccc1CN1[C@H](CO)[C@H]2c3ccccc3N(C(=O)c3cccnc3)C[C@H]21 | > 10 µM (inactive)
C/C=C/c1ccc([C@@H]2[C@@H](CN(CC)C(C)=O)N(Cc3cccnc3)[C@H]2CO)cc1 | > 10 µM (inactive)
CCCNC(=O)N1[C@H](CO)[C@H](c2ccc(-c3ccc(C#N)cc3)cc2)[C@@H]1CNC | > 10 µM (inactive)
CC(=O)N(CC1CCC1)C[C@H]1N[C@H](CO)[C@@H]1c1ccc(C2=CCCC2)cc1 | > 10 µM (inactive)
C[C@H]1CN([C@@H](C)CO)C(=O)CCCn2nncc2CO[C@H]1CN(C)C(=O)Nc1ccnc(N2CCOCC2)c1 | > 10 µM (inactive)
CCC(=O)NC[C@H]1[C@@H](c2ccc(-c3ccc(F)cc3)cc2)[C@@H](CO)N1C(=O)CC | > 10 µM (inactive)
C[C@@H]1CN([C@@H](C)CO)C(=O)CCCn2nncc2CO[C@H]1CN(C)C(=O)c1ccc(N2CCN(C)CC2)cc1 | > 10 µM (inactive)
C[C@@H]1CN([C@H](C)CO)C(=O)CCCn2cc(nn2)CO[C@H]1CN(C)C(=O)Nc1cccc(C(F)(F)F)c1 | > 10 µM (inactive)
O=C(CN1CCOCC1)N(CC1CCC1)C[C@H]1N[C@H](CO)[C@@H]1c1ccccc1 | > 10 µM (inactive)
CCCNC(=O)N1C[C@H]2[C@@H](c3ccccc31)[C@@H](CO)N2C(=O)Nc1ccccc1F | > 10 µM (inactive)
C/C=C/c1ccc([C@@H]2[C@@H](CNC(=O)C3CCC3)N(C(=O)NCCC)[C@H]2CO)cc1 | > 10 µM (inactive)
O=C(c1ccc2c(c1)OCO2)N1C[C@@H]2[C@H](c3ccccc31)[C@@H](CO)N2C(=O)CC1CC1 | > 10 µM (inactive)
COc1ccc(NC(=O)N2C[C@@H]3[C@H](c4ccccc42)[C@H](CO)N3Cc2ccccn2)cc1 | > 10 µM (inactive)
CCCN1[C@H](CO)[C@H](c2ccc(C#Cc3ccccc3)cc2)[C@@H]1CNC1CCCC1 | > 10 µM (inactive)
COc1ccccc1-c1ccc([C@H]2[C@@H](CO)N[C@@H]2CNC(=O)C2CC2)cc1 | > 10 µM (inactive)
C[C@@H]1CN([C@H](C)CO)C(=O)CCCn2nncc2CO[C@@H]1CN(C)C(=O)Nc1ccc(-c2cccs2)cc1 | > 10 µM (inactive)

SMILES | AC50
CNC[C@@H]1OCc2cn(nn2)CCCC(=O)N([C@H](C)CO)C[C@H]1C | > 10 µM (inactive)
C[C@H]1CN([C@@H](C)CO)C(=O)CCCn2nncc2CO[C@H]1CN(C)Cc1ccc2cccnc2c1 | > 10 µM (inactive)
C[C@H]1CN([C@@H](C)CO)C(=O)CCCn2nncc2CO[C@@H]1CN(C)S(=O)(=O)c1cn(C)cn1 | > 10 µM (inactive)
CCS(=O)(=O)N(C)C[C@@H]1N[C@H](CO)[C@@H]1c1ccc(C#CC(C)C)cc1 | > 10 µM (inactive)
O=S(=O)(NC[C@H]1[C@H](c2ccccc2)[C@@H](CO)N1CC1CC1)c1ccccc1 | > 10 µM (inactive)
C[C@H](CO)N1C[C@H](C)[C@H](CN(C)S(=O)(=O)c2cccc(C#N)c2)OCc2cn(nn2)CCCC1=O | > 10 µM (inactive)
CCCC(=O)N1C[C@@H]2[C@H](c3ccccc31)[C@@H](CO)N2C(=O)Nc1ccc(F)cc1 | > 10 µM (inactive)
CCC(=O)N1[C@H](CO)[C@H](c2ccc(C3=CCCC3)cc2)[C@@H]1CNC1CCCCC1 | > 10 µM (inactive)
COc1ccc(C(=O)N2C[C@@H]3[C@H](c4ccccc42)[C@H](CO)N3Cc2ccccc2Cl)cc1 | > 10 µM (inactive)
C[C@@H]1CN([C@H](C)CO)C(=O)CCCn2nncc2CO[C@@H]1CN(C)Cc1ccc2cccnc2c1 | > 10 µM (inactive)
COc1ccccc1CN1[C@@H]2CN(C(=O)C3CCOCC3)c3ccccc3[C@@H]2[C@@H]1CO | > 10 µM (inactive)
C[C@@H]1CN([C@H](C)CO)C(=O)CCCn2nncc2CO[C@H]1CN(C)Cc1ccc2c(c1)OCCN2C | > 10 µM (inactive)
O=S(=O)(NC[C@H]1[C@H](c2ccccc2)[C@H](CO)N1CC1CC1)c1ccccc1 | > 10 µM (inactive)
C/C=C/c1ccc([C@@H]2[C@@H](CO)N(C(C)=O)[C@H]2CN(CC)C(=O)CN(C)C)cc1 | > 10 µM (inactive)
CN(Cc1ccccc1F)C[C@H]1[C@@H](c2ccccc2)[C@@H](CO)N1S(C)(=O)=O | > 10 µM (inactive)
C[C@@H]1CN([C@@H](C)CO)C(=O)CCCn2cc(nn2)CO[C@@H]1CN(C)C(=O)c1ccc(N2CCN(C)CC2)cc1 | > 10 µM (inactive)
C/C=C/c1ccc([C@@H]2[C@@H](CN(CC)C(=O)CN(C)C)N(C(C)=O)[C@H]2CO)cc1 | > 10 µM (inactive)
COCC(=O)N1C[C@H]2[C@@H](c3ccccc31)[C@H](CO)N2C(=O)c1ccccc1F | > 10 µM (inactive)
CCC(=O)N1[C@@H](CO)[C@H](c2ccccc2)[C@@H]1CN(C)C(=O)CN1CCOCC1 | > 10 µM (inactive)
C[C@@H]1CN([C@H](C)CO)C(=O)CCCn2nncc2CO[C@H]1CN(C)Cc1ccccc1C(=O)O | > 10 µM (inactive)
CCCNC(=O)N1[C@@H]2CN(C(=O)Nc3cccc(Cl)c3)c3ccccc3[C@@H]2[C@@H]1CO | > 10 µM (inactive)
O=C(NC[C@@H]1[C@H](c2ccccc2)[C@@H](CO)N1Cc1cccnc1)c1ccccn1 | > 10 µM (inactive)
CC(C)NC(=O)N1[C@@H](CO)[C@H](c2ccccc2)[C@@H]1CN(C)C(=O)c1cccnc1 | > 10 µM (inactive)
C[C@@H]1CN([C@@H](C)CO)C(=O)CCCn2nncc2CO[C@@H]1CN(C)C(=O)Nc1ccc2c(c1)OCCO2 | > 10 µM (inactive)
COCCN(C[C@@H]1[C@@H](c2ccccc2)[C@@H](CO)N1C(C)=O)C(=O)c1cccnc1 | > 10 µM (inactive)

SMILES | AC50
O=C(NC[C@@H]1[C@@H](c2ccccc2)[C@@H](CO)N1C(=O)C1CCC1)NC1CCCC1 | > 10 µM (inactive)
CC(C)NC(=O)N1[C@H](CNC(=O)CN(C)C)[C@@H](c2ccccc2)[C@@H]1CO | > 10 µM (inactive)
CN(C[C@@H]1N[C@H](CO)[C@H]1c1ccc(C2=CCCC2)cc1)C(=O)c1cccc(F)c1 | > 10 µM (inactive)
O=C(Nc1ccc(Cl)cc1)N1C[C@H]2[C@@H](c3ccccc31)[C@H](CO)N2CC1CCCCC1 | > 10 µM (inactive)
C[C@@H]1CN([C@@H](C)CO)C(=O)CCCn2nncc2CO[C@@H]1CN(C)C(=O)Nc1ccnc(N2CCOCC2)c1 | > 10 µM (inactive)
CC(=O)NC[C@H]1[C@@H](c2ccc(-c3cccnc3)cc2)[C@@H](CO)N1C(=O)CC1CC1 | > 10 µM (inactive)
OC[C@H]1[C@@H]2c3ccccc3NC[C@@H]2N1Cc1ccccc1Cl | > 10 µM (inactive)
O=C(c1ccncc1)N1C[C@@H]2[C@H](c3ccccc31)[C@@H](CO)N2C(=O)CN1CCOCC1 | > 10 µM (inactive)
Cc1ccc(S(=O)(=O)N2C[C@H]3[C@@H](c4ccccc42)[C@@H](CO)N3Cc2cccnc2)cc1 | > 10 µM (inactive)
COc1ccc(CN2[C@@H](CO)[C@@H]3c4ccccc4N(C(=O)NC(C)C)C[C@@H]32)cc1 | > 10 µM (inactive)
CC(=O)N1[C@H](CO)[C@H](c2ccccc2)[C@H]1CN(CC(C)C)C(=O)c1ccccn1 | > 10 µM (inactive)
Cc1cccc(S(=O)(=O)N2C[C@@H]3[C@H](c4ccccc42)[C@H](CO)N3Cc2ccc3c(c2)OCO3)c1 | > 10 µM (inactive)
COc1ccccc1S(=O)(=O)N(C)C[C@@H]1OCc2cn(nn2)CCCC(=O)N([C@H](C)CO)C[C@@H]1C | > 10 µM (inactive)
CCC(=O)N1C[C@@H]2[C@H](c3ccccc31)[C@@H](CO)N2C(=O)CC1CC1 | > 10 µM (inactive)
COCC(=O)N(C[C@@H]1[C@@H](c2ccccc2)[C@H](CO)N1C(=O)NC(C)C)C(C)C | > 10 µM (inactive)
O=C(c1ccncc1)N1C[C@H]2[C@@H](c3ccccc31)[C@@H](CO)N2C(=O)CN1CCOCC1 | > 10 µM (inactive)
C[C@H](CO)N1C[C@H](C)[C@@H](CN(C)S(=O)(=O)c2ccccc2C#N)OCc2cnnn2CCCC1=O | > 10 µM (inactive)
C[C@@H]1CN([C@@H](C)CO)C(=O)CCCn2nncc2CO[C@H]1CN(C)C(=O)CCC(F)(F)F | > 10 µM (inactive)
OC[C@@H]1[C@H](c2ccc(-c3ccc(F)cc3)cc2)[C@@H](CNC2CCCC2)N1CCC(F)(F)F | > 10 µM (inactive)
C[C@@H]1CN([C@@H](C)CO)C(=O)CCCn2cc(nn2)CO[C@H]1CN(C)C(=O)Nc1cccc(C(F)(F)F)c1 | > 10 µM (inactive)
O=C(C1CCCCC1)N1[C@@H](CO)[C@@H]2c3ccccc3NC[C@@H]21 | > 10 µM (inactive)
COc1ccc(NC(=O)N(C)C[C@@H]2OCc3cnnn3CCCC(=O)N([C@H](C)CO)C[C@H]2C)c(OC)c1 | > 10 µM (inactive)
CC(C)NC(=O)N1[C@H](CO)[C@H]2c3ccccc3NC[C@H]21 | > 10 µM (inactive)
C[C@@H]1CN([C@H](C)CO)C(=O)CCCn2nncc2CO[C@@H]1CN(C)C(=O)Nc1cccc(Oc2ccccn2)c1 | > 10 µM (inactive)
O=C(c1ccccn1)N1C[C@@H]2[C@H](c3ccccc31)[C@@H](CO)N2C(=O)Nc1ccccc1Cl | > 10 µM (inactive)
